Laboratory results from patent US20030083366A1, “Combination chemotherapy” (priority 2001, published 2003).
Where “and” joins values, the source holds several entries; their conditions need not be identical. Identical values can stand only once. Like-named read-outs stand apart in the source and are kept apart here.

Key:
[1] = Route of elimination of radiolabeled drug, monkeys; type: in vivo; conditions: within 24 hours
Procedure: (§1) Mass balance/route of elimination studies have not been conducted in humans. Animal studies indicate that the principal route of elimination is via renal excretion, with 80% and 62% of radiolabeled drug appearing in the urine of monkeys and rats, respectively, within 24 hours.

[2] = Phase 1 dose-escalation study of CI-994 in solid tumor patients; type: in vivo
Procedure: In one such study, patients were treated using a dose-escalation scheme that increased both the daily dose and the duration of treatment. The majority of patients had received extensive prior chemotherapy. The maximum-tolerated dose (MTD) was 15 mg/m^2/day when the duration of treatment was 14 consecutive days. To allow more prolonged treatment, lower doses were studied. Using a schedule of 8 weeks of continuous daily therapy, followed by a 2-week ‘drug holiday’, the MTD was 8 mg/m^2/day. […] Blood counts tended to stabilize even with continued treatment and to recover quickly when treatment was stopped.

[3] = Phase 1 study, once daily high-dose 5-day schedule, relapsed acute leukemia or other hematologic malignancy; type: in vivo
Procedure: An additional Phase 1 study was conducted in patients with relapsed acute leukemia or other hematologic malignancy using a once daily high-dose 5-day dosing schedule. […] Hematologic toxicities cannot be assessed in this patient population. Two patients with AML developed tumor lysis syndrome, resulting in one death. Transient decreases in peripheral white blood cell counts were noted.

[4] = LC-12 squamous cell lung carcinoma implanted subcutaneously in BALB/C mice, chemotherapy study; type: in vivo, female BALB/C mice; conditions: female, mouse, in vivo, tumor-bearing BALB/C mice
Procedure: (§2) The synergistic combinations provided by this invention have been evaluated in standard chemotherapy studies using female BALB/C mice weighing 18 to 20 g. The test mice were obtained from Charles River Laboratories, Wilmington, Mass. On Day 0 of the test, each mouse was surgically implanted (subcutaneously) with a fragment of LC-12 squamous cell lung carcinoma tumor weighing approximately 30 to 60 mg. The tumor fragments were implanted using a 12 gauge trocar. The mice were weighed weekly, and tumor size (width and length in mm) were measured two times each week with standard calipers. Tumor mass for each animal was calculated according to the formula: [formula]
(§3) where “a” is width of the tumor in mm, and “b” is the length in mm. Evaluation of anticancer activity was established by the formula T-C, where “T” and “C” are the median time (in days) required for the treated and control (respectively) tumors to reach a predetermined size of about 750 mg (the “evaluation size”). Tumors generally reached size of about 150 to about 200 mg before drug dosing was initiated. Antitumor activity was assessed according to four parameters: (1) partial tumor response (PR); (2) complete tumor response (CR); (3) tumor-free survival (TF); and (4) tumor growth delay (TL). Tumor growth delay is expressed as a T-C value, where T is the median days required for the treatment group tumors to reach a predetermined size (e.g., 750 mg), and C is the median days for the control group tumors to reach this size. From the tumor growth delay value, the net log10 tumor cell kill is calculated as follows:
(§4) Net log10 tumor cell kill=[(T−C)−Rx]/3.32×Td
(§5) where Td is the days for the tumor mass to double, and Rx is the total days of treatment. Td is estimated from the best fit straight line from a log-linear plot of the control-group tumors in exponential growth (200 to 800 mg range). The conversion of the T-C values to log10 cell kill is possible because the Td for tumors regrowing after treatment is approximately the same as that for untreated control mice. The net log10 kill value normalizes the efficacy data for tumor growth during treatment regimens of varied duration and provides an estimate of whether an actual regression of the tumor occurred. Positive values indicate that an actual reduction of tumor burden occurred. Negative values indicate the tumor actually grew (although possibly more slowly) during treatment. Tumor-free survivors were excluded from these calculations.
(§6) Acetyldinaline was suspended in 0.5% aqueous methyl cellulose and administered orally at various dosages in 0.5 mL volumes. Docetaxel was dissolved in 5% ethanol, 5% Tween 80, 90% aqueous saline and administered intravenously at various dosage levels in 0.2 mL injections.
(§7) The animals were divided into groups of 10 animals each. One group served as controls and received vehicle alone, with no drug treatments. Two groups received oral doses of acetyldinaline alone at a specified level (as shown in Table 3) of active drug (30 mg/kg and 60 mg/kg). […] Three groups received docetaxel alone at doses of 3.5, 5.6, and 9.0 mg/kg. Two groups received acetyldinaline at the recited doses, in combination with 3.5 mg/kg of docetaxel, and another two groups received acetyldinaline at the recited doses in combination with docetaxel at […], and the final two groups received acetyldinaline at the recited doses, in combination until 9.0 mg/kg of docetaxel.

[5] = system: LC-12 squamous cell lung carcinoma tumor; assay: as above; type: in vivo, female BALB/C mice; conditions: for antitumor effect of the agents individually: single agent
Procedure: as §2, §3, §4, §5, §6, §7

[6] = Route of elimination of radiolabeled drug, rats; type: in vivo; conditions: within 24 hours
Procedure: as §1

[7] = Pharmacokinetics and food effect in the solid tumor Phase 1 study; type: in vivo, patients; conditions: oral, after a fasting period
[8] = CI-994 30.0 mg/kg/injection oral, Days 11-13, 15-17, 19-21, alone
[9] = CI-994 60 mg/kg/day (MTD), alone
[10] = CI-994 60.0 mg/kg/injection oral, Days 11-13, 15-17, 19-21, alone
[11] = Docetaxel 3.5 mg/kg/injection iv, Days 11, 15, 19, alone
[12] = Docetaxel 5.6 mg/kg/injection iv, Days 11, 15, 19, alone
[13] = Docetaxel 9.0 mg/kg/injection iv, Days 11, 15, 19, alone

## CC(=O)Nc1ccc(C(=O)Nc2ccccc2N)cc1 [CI-994, 4-acetylamino-N-(2′-aminophenyl)-benzamide]
[1]
  radiolabeled drug appearing in the urine: 80%
[2]; 8 weeks of continuous daily therapy followed by a 2-week drug holiday
  MTD: 8 mg/m^2/day
[2]; Phase 1 patients
  Responses: one partial response in a heavily pretreated patient with NSCLC and a minor response in one patient each with renal cell cancer and NSCLC
[2]; human, in vivo
  Other toxicities: nausea, vomiting, diarrhea, anorexia, fatigue, mucositis, headache, dehydration, and increases in liver and renal function test values
  cumulative toxicity: no evidence of cumulative toxicity
  dose-limiting toxicity: thrombocytopenia or neutropenia
  time of occurrence of dose-limiting toxicity after start of therapy: ≤ 1 month
[2]; treatment for 14 consecutive days, patients mostly with extensive prior chemotherapy
  maximum-tolerated dose (MTD): 15 mg/m^2/day
[3]; in vivo
  Other adverse events: nausea, vomiting, hypotension resulting from dehydration, hypocalcemia, headache
  dose-limiting toxicity: acute CNS toxicity manifested as sedation and somnolence
[3]; once daily high-dose 5-day dosing schedule
  MTD: 135 mg/m^2/day
[4]; oral
  MTD: 60 mg/kg/day
[5]; CI-994 30 mg/kg/day (50% its MTD), alone
  partial tumor response: 20%
[5]; [8]
  % Weight Change: −5.5%
  Net Log10 Kill: −0.5 log10
  Non-specific Deaths: 0/10
  PR (partial response): 2/10
  T − C (tumor growth delay to 750 mg): 4.6 days
  Tumor Free (Day 105): 0/10
[5]; CI-994 30.0 mg/kg/injection oral, Days 11-13, 15-17, 19-21, alone, 30 mg/kg
  CR (complete response): no complete tumor responses and 0/10
[5]; [9]
  complete tumor response rate: 40%
  partial tumor response: 10%
[5]; CI-994 60 mg/kg/day (MTD), alone, 105 days after the last CI-994 treatment
  mice tumor free when the study ended: 30%
[5]; [10]
  % Weight Change: −10.5%
  CR (complete response): 4/10
  Net Log10 Kill: −0.3 log10
  Non-specific Deaths: 0/10
  PR (partial response): 1/10
  T − C (tumor growth delay to 750 mg): 4.9 days
  Tumor Free (Day 105): 3/10
[5]
  antitumor effect of the agents individually: only modest antitumor efforts
8 mg/m^2 given orally daily
  Clinical benefit: reported in patients with renal cell cancer
  Objective responses: seen in patients with nonsmall cell lung cancer
In vivo, po
  dose-limiting toxicity: Thrombocytopenia
[6]
  radiolabeled drug appearing in the urine: 62%
[7]; human, plasma, preliminary results, read-out: terminal elimination half-life (converted)
  half-life: ~15 h
[7]
  maximum plasma CI-994 concentrations with increasing dose levels: less than dose-proportional
  terminal elimination half-life and apparent clearance rate versus dose: independent of the dose administered

## CC(=O)O[C@@]12CO[C@@H]1C[C@H](O)[C@@]1(C)C(=O)[C@H](O)C3=C(C)[C@@H](OC(=O)[C@H](O)[C@@H](NC(=O)OC(C)(C)C)c4ccccc4)C[C@@](O)([C@@H](OC(=O)c4ccccc4)[C@H]21)C3(C)C [Docetaxel]
[4]; intravenous, read-out: MTD of docetaxel
  MTD: 9 mg/kg/day
[5]; [11]
  % Weight Change: −7.3%
  CR (complete response): 0/10
  Non-specific Deaths: 0/10
  PR (partial response): 0/10
  T − C (tumor growth delay to 750 mg): -1.7 days
  Tumor Free (Day 105): 0/10
[5]; [12]
  % Weight Change: −11.7%
  CR (complete response): 0/10
  Non-specific Deaths: 1/10
  PR (partial response): 1/10
  T − C (tumor growth delay to 750 mg): -0.5 days
  Tumor Free (Day 105): 0/10
[5]; [13]
  % Weight Change: −16.7%
  CR (complete response): 0/10
  Net Log10 Kill: −0.2 log10
  Non-specific Deaths: 1/10
  PR (partial response): 3/10
  T − C (tumor growth delay to 750 mg): 3.3 days
  Tumor Free (Day 105): 0/10
[5]; Docetaxel 9.0 mg/kg/injection iv, Days 11, 15, 19, alone, listed as docetaxel
  CR (complete response): no complete tumor responses
[5]; docetaxel 9 mg/kg/day (MTD), alone
  partial tumor responses: 30%
[5]
  antitumor effect of the agents individually: only modest antitumor efforts
